These results are taken from PMC10949195, “Exponential Combination of a and e/g Intracellular Peptide Libraries Identifies a Selective ATF3 Inhibitor” (ACS Chemical Biology, 2024).

Data set [1] in a line: CD thermal denaturation of peptide in isolation. The class given is physicochemical. The note with it: CD at 222 nm; 150 μM total peptide; 10 mM potassium phosphate, 100 mM potassium fluoride, pH 7. From the text: Following the observed significant increase in global secondary structure content for the ATF3-ATF3W_aeg complex relative to component peptides (Figure 6), we next analyzed the stability of the complex by undertaking thermal denaturation experiments (Figure 7). […] Moreover, consistent with spectral data, the clear increase from the average profile of the component peptides relative to that of the measured is most pronounced in the combined construct (Figure 7, red hash vs black). This provides robust additional evidence for a preferential interaction between ATF3 and ATF3W_aeg that is improved over either the core a or electrostatic e/g constructs.
Shown are thermal stabilities of peptide pairs measured via temperature dependence of the CD signal at 222 nm. The thermal denaturation profiles for (a) ATF3-ATF3W_a, (b) ATF3-ATF3W_eg, and (c) ATF3-ATF3W_aeg show a substantial increase in the transition midpoint (Tm = 59 °C) relative to component peptides (black vs red hash). Experiments were performed in 10 mM potassium phosphate and 100 mM potassium fluoride (pH 7.0). All spectra were recorded at 1 °C increments at a total peptide concentration of 150 μM and fitted to a two-state denaturation model. […]

For data set [2], the target named is T1, ATF3 (Homo sapiens, UniProt P18847).
T1 construct: We focus on the selective targeting of the ATF3 leucine zipper dimerization domain using intracellular peptide library screening; made in house; host or cells: chemical solid-phase peptide synthesis (no expression host)
T1 sequence (P18847 110-143): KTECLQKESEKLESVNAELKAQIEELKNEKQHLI
As to the kind of experiment: Size-exclusion chromatography of ATF3-ATF3W_aeg mixture. The class given is binding. The note with it: Superdex Peptide 10/300 GL, RT; 20 μM total peptide. On the procedure:
(§1) During SEC experiments, monomeric ATF3 (Figure 8, blue line) and ATF3W_aeg (Figure 8, green line) eluted at approximately 20 min. These contrast with the dimeric profile observed for ATF3-ATF3W_aeg (Figure 8, black line), which occurred at approximately 19 min. For all samples, elution profiles were consistent with either a validated monomer or dimer elution pattern.[15]
(§2) Figure 8 SEC profiles indicate that ATF3W_aeg binds ATF3. Shown are size exclusion chromatography profiles for interacting peptides. The peak at approx 19 min for the ATF3-ATF3W_aeg mixture (black trace) represents a dimeric sample while ATF3 (blue trace) and ATF3W_aeg (green trace) generate a peak at approx 20 min, indicating the presence of a monomer. These experiments, undertaken at a total peptide concentration of 20 μM, provide additional evidence for selectivity of the ATF3-ATF3W_aeg interaction. Arrows show controls from previous peptides with elution times for a 32 mer Fos monomeric peptide (20 min) and a 37 mer cJun–FosW heterodimer (18.5 min).[15]
(§3) Size-exclusion experiments were performed at RT using a Superdex Peptide 10/300 GL column (GE Healthcare Life Sciences) as described previously.[23]
(SEC sorts molecules by how far they enter the pores of the column.)

Data set [3] is described as follows: Size-exclusion chromatography of peptide alone. The class given is physicochemical. The note with it: Superdex Peptide 10/300 GL, RT; 20 μM total peptide. Here is the method: as §1, §2, §3
The target of data set [4] is T1, ATF3. As to the kind of experiment: Isothermal titration calorimetry (ITC). The class given is binding. The note with it: 20 °C, pH 7.0. On the procedure: To provide additional insight into the origin of the binding affinity (KD) between ATF3 and ATF3W_aeg, isothermal titration calorimetry (ITC) experiments were performed. […] The free energy of binding was predominantly driven by a favorable enthalpic term (ΔH = −14.6 kcal/mol) and opposed by an unfavorable entropic component (TΔS= −5.33 kcal/mol).
Figure 9 Isothermal titration calorimetry analysis of the ATF3-ATF3W_aeg interaction. In the bottom plot, the solid line represents the fit to the data based on the binding of a ligand to a macromolecule using the MicroCal (GE Healthcare) Origin software.[16] See Materials and Methods for further details.
ITC measurements were made using a Microcal PEAQ-ITC instrument with data collected and processed using the Origin 7.0 software package.[14],[23] All measurements were carried out at least twice. Briefly, all peptides were studied at 20 °C in 10 mM potassium phosphate and 100 mM potassium fluoride at pH 7.0. 40 μL of ATF3W_aeg was loaded into the syringe at 60 μM peptide concentration. 350 μL of ATF3 was loaded into the cell at 6 μM. The experiment was undertaken by injecting 2 μL of ATF3W_aeg 19 times into the calorimetric cell. Following ITC measurements, the data were fit to a one-site model.
(ITC needs no label: the signal is the heat of the interaction.)

Data set [5] has as its system M2 macrophages differentiated from the human THP-1 monocytic cell line. Description: THP-1 polarization assay and CCL-4 ELISA. Type of data set: cell-based. The note with it: M2 macrophages from THP-1 (IL-4 polarized); 20 μM peptide with NLS-TAT appendage; 48 h; versus untreated. From the text:
ATF3 is a transcriptional repressor that regulates both the extent and duration of pro-inflammatory gene expression.[17] Specifically, ATF3 has been implicated in the transcriptional repression of chemokines including chemokine (C–C motif) ligand 4 (CCL4),[18] also known as macrophage inflammatory protein (MIP-1β), which promotes recruitment of additional immune cells to inflamed tissues. In the context of cancer, ATF3 activity counters antitumor immunity and promotes tumor growth. We therefore explored the effect of the ATF3W-aeg antagonist peptide on CCL4 expression in M2 anti-inflammatory macrophages differentiated from the human THP-1 monocytic cell line. […]
Figure 10 ATF3W-aeg peptide stimulates expression of pro-inflammatory cytokine in M2 macrophages. CCL4 protein levels were measured by ELISA from supernatants of M2 macrophage cultures treated with either 20 μM ATF3W-aeg or negative control peptide (****p < 0.0001). […]
THP-1 cells were seeded in 12-well format at a concentration of 5 × 10^5 cells/well and treated with 7.5 ng/mL Phorbol 12-Myristate 13-Acetate (PMA, Sigma-Aldrich) in RPMI media supplemented with 10% FBS and 55 μM β-mercaptoethanol (BME). […] After 48 h, supernatants were collected and clarified by centrifugation, and the CCL-4 concentration was assessed by ELISA (MIP-1b Human Instant ELISA Kit, ThermoFisher Scientific) according to the manufacturer’s protocol.
In general terms: In an ELISA, binding on a coated surface is turned into a signal by an enzyme label.

“Ac-ELAALEQKAYALKQENAALEKEVAALEQKIAALK-NH2 (N-terminus and C-terminus assumed) [ATF3W_aeg]”: the “self-association in isolation (thermal denaturation profile)” value in data set [1] is given as “inability of ATF3W_aeg to form a stable homodimer in isolation”. On ATF3 [2], the “SEC elution time of ATF3-ATF3W_aeg mixture” value was “approximately 19 min” and the “oligomeric state of ATF3-ATF3W_aeg interaction by SEC” value is given as “exclusively dimeric”. Also, in data set [3], the “SEC elution time, peptide alone” value was “approximately 20 min” and the “oligomeric state in solution by SEC, peptide alone” value is given as “exclusively as a monomer”. On ATF3 [4], the “N (sites), stoichiometry of binding to ATF3” value is 0.72; the “TΔS of binding to ATF3” value is -5.33 kcal/mol; the “ΔG of binding to ATF3” value was -9.31 kcal/mol; the “ΔH of binding to ATF3” value was -14.6 kcal/mol. Moreover, the “effect on CCL4 expression (protein in supernatant, ELISA)” value in data set [5] is recorded as “significantly increased CCL4 expression”.
